How the values were obtained:
Paclitaxel = compound: CC(=O)O[C@H]1C(=O)[C@@]2(C)[C@H]([C@H](OC(=O)c3ccccc3)[C@]3(O)C[C@H](OC(=O)[C@H](O)[C@@H](NC(=O)c4ccccc4)c4ccccc4)C(C)=C1C3(C)C)[C@]1(OC(C)=O)CO[C@@H]1C[C@@H]2O [Paclitaxel]
Ipatasertib/GDC0068 = compound: CC(C)NC[C@@H](C(=O)N1CCN(c2ncnc3c2[C@H](C)C[C@H]3O)CC1)c1ccc(Cl)cc1 [Ipatasertib/GDC0068]
Luminespib/NVP-AUY922 = compound: CCNC(=O)c1noc(-c2cc(C(C)C)c(O)cc2O)c1-c1ccc(CN2CCOCC2)cc1 [Luminespib/NVP-AUY922]
BSJ-01-175 = compound: CN(C)C/C=C/C(=O)Nc1ccc(O[C@@H]2CCC[C@@H](Nc3ncc(Cl)c(-c4c[nH]c5ccccc45)n3)C2)cc1 [BSJ-01-175]
ABT-737 = compound: CN(C)CC[C@H](CSc1ccccc1)Nc1ccc(S(=O)(=O)NC(=O)c2ccc(N3CCN(Cc4ccccc4-c4ccc(Cl)cc4)CC3)cc2)cc1[N+](=O)[O-] [ABT-737]
Flavopiridol [1] = compound: T1, CN1CC[C@H](c2c(O)cc(O)c3c(=O)cc(-c4ccccc4Cl)oc23)[C@H](O)C1 [Flavopiridol]
Doxorubicin = compound: COc1cccc2c1C(=O)c1c(O)c3c(c(O)c1C2=O)C[C@@](O)(C(=O)CO)C[C@@H]3O[C@H]1C[C@H](N)[C@H](O)[C@H](C)O1 [Doxorubicin]
Taselisib/GDC0032 = compound: Cc1nc(-c2cn3c(n2)-c2ccc(-c4cnn(C(C)(C)C(N)=O)c4)cc2OCC3)n(C(C)C)n1 [Taselisib/GDC0032]
Olaparib/AZD2281 = compound: O=C(c1cc(Cc2n[nH]c(=O)c3ccccc23)ccc1F)N1CCN(C(=O)C2CC2)CC1 [Olaparib/AZD2281]
YKL-5-124 = compound: C=CC(=O)Nc1ccc(C(=O)Nc2[nH]nc3c2CN(C(=O)N[C@H](CN(C)C)c2ccccc2)C3(C)C)cc1 [YKL-5-124]; experiment: GR value, 72 h; higher = faster growth (1 = untreated, <0 = killing);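 further: breast cancer and non-malignant breast epithelial lines, nine half-log doses, viable cells counted by Hoechst and LIVE/DEAD dye imaging versus time-zero plates and DMSO controls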
BSJ-03-123 = compound: CC(=O)c1c(C)c2cnc(Nc3ccc(N4CCN(CCOCCOCCOCCNC(=O)COc5cccc6c5C(=O)N(C5CCC(=O)NC5=O)C6=O)CC4)cn3)nc2n(C2CCCC2)c1=O [BSJ-03-123]; experiment: as above
[2] = compound: CC(=O)c1c(C)c2cnc(Nc3ccc(N4CCNCC4)cn3)nc2n(C2CCCC2)c1=O; experiment: as above
[3] = compound: CCN1CCN(Cc2ccc(Nc3ncc(F)c(-c4cc(F)c5nc(C)n(C(C)C)c5c4)n3)nc2)CC1; experiment: as above
[4] = compound: CCc1cnn2c(NCc3ccc[n+]([O-])c3)cc(N3CCCC[C@H]3CCO)nc12; experiment: as above
LEE011/Ribociclib = compound: CN(C)C(=O)c1cc2cnc(Nc3ccc(N4CCNCC4)cn3)nc2n1C1CCCC1 [LEE011/Ribociclib]; experiment: as above
THZ531 = compound: CN(C)C/C=C/C(=O)Nc1ccc(C(=O)N2CCC[C@@H](Nc3ncc(Cl)c(-c4c[nH]c5ccccc45)n3)C2)cc1 [THZ531]; experiment: as above
Flavopiridol [5] = compound: T1, Flavopiridol; experiment: as above
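Wherever GR50, 72 h is given: breast cancer and non-malignant breast epithelial cell lines, Deep Dye Drop or Dye Drop imaging, nine half-log doses, GR normalized to time-zero plates and DMSO-only controls.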

SUM159
GR50, 72 h (Paclitaxel): 0.00542 µM
GR50, 72 h (Ipatasertib/GDC0068): > 10 µM
GR50, 72 h (Luminespib/NVP-AUY922): 0.00945 µM
GR50, 72 h (BSJ-01-175): 0.0681 µM
GR50, 72 h (ABT-737): > 10 µM
GR50, 72 h (Flavopiridol [1]): 0.127 µM
GR50, 72 h (Doxorubicin): 0.021 µM
GR50, 72 h (Taselisib/GDC0032): 0.182 µM
GR50, 72 h (Olaparib/AZD2281): > 10 µM
GR value (YKL-5-124; 0.001 µM): 0.554 GR
GR value (YKL-5-124; 0.003162 µM): 0.292 GR
GR value (YKL-5-124; 0.01 µM): 0.169 GR
GR value (YKL-5-124; 0.03162 µM): 0.149 GR
GR value (YKL-5-124; 0.1 µM): 0.136 GR
GR value (YKL-5-124; 0.3162 µM): 0.0731 GR
GR value (YKL-5-124; 1 µM): 0.0819 GR
GR value (YKL-5-124; 3.162 µM): 0.0501 GR
GR value (YKL-5-124; 10 µM): -0.146 GR
GR value (BSJ-03-123; 0.001 µM): 0.918 GR
GR value (BSJ-03-123; 0.003162 µM): 0.925 GR
GR value (BSJ-03-123; 0.01 µM): 0.897 GR
GR value (BSJ-03-123; 0.03162 µM): 0.826 GR
GR value (BSJ-03-123; 0.1 µM): 0.826 GR
GR value (BSJ-03-123; 0.3162 µM): 0.797 GR
GR value (BSJ-03-123; 1 µM): 0.687 GR
GR value (BSJ-03-123; 3.162 µM): 0.526 GR
GR value (BSJ-03-123; 10 µM): -0.042 GR
GR value ([2]; 0.0003162 µM): 1 GR
GR value ([2]; 0.001 µM): 0.988 GR
GR value ([2]; 0.003162 µM): 0.987 GR
GR value ([2]; 0.01 µM): 0.947 GR
GR value ([2]; 0.03162 µM): 0.881 GR
GR value ([2]; 0.1 µM): 0.755 GR
GR value ([2]; 0.3162 µM): 0.64 GR
GR value ([2]; 1 µM): 0.574 GR
GR value ([2]; 3.162 µM): 0.468 GR
GR value ([3]; 0.001 µM): 0.989 GR
GR value ([3]; 0.003162 µM): 0.962 GR
GR value ([3]; 0.01 µM): 0.897 GR
GR value ([3]; 0.03162 µM): 0.773 GR
GR value ([3]; 0.1 µM): 0.662 GR
GR value ([3]; 0.3162 µM): 0.558 GR
GR value ([3]; 1 µM): 0.405 GR
GR value ([3]; 3.162 µM): 0.308 GR
GR value ([3]; 10 µM): -0.0742 GR
GR value ([4]; 0.0001 µM): 1.01 GR
GR value ([4]; 0.0003162 µM): 1.01 GR
GR value ([4]; 0.001 µM): 1.02 GR
GR value ([4]; 0.003162 µM): 1.02 GR
GR value ([4]; 0.01 µM): 0.937 GR
GR value ([4]; 0.03162 µM): -0.0092 GR
GR value ([4]; 0.1 µM): -0.0413 GR
GR value ([4]; 0.3162 µM): -0.0777 GR
GR value ([4]; 1 µM): -0.119 GR
GR value (LEE011/Ribociclib; 0.001 µM): 0.942 GR
GR value (LEE011/Ribociclib; 0.003162 µM): 0.892 GR
GR value (LEE011/Ribociclib; 0.01 µM): 0.835 GR
GR value (LEE011/Ribociclib; 0.03162 µM): 0.814 GR
GR value (LEE011/Ribociclib; 0.1 µM): 0.786 GR
GR value (LEE011/Ribociclib; 0.3162 µM): 0.73 GR
GR value (LEE011/Ribociclib; 1 µM): 0.769 GR
GR value (LEE011/Ribociclib; 3.162 µM): 0.63 GR
GR value (LEE011/Ribociclib; 10 µM): 0.449 GR
GR value (THZ531; 0.0001 µM): 0.957 GR
GR value (THZ531; 0.0003162 µM): 0.95 GR
GR value (THZ531; 0.001 µM): 0.98 GR
GR value (THZ531; 0.003162 µM): 0.972 GR
GR value (THZ531; 0.01 µM): 0.974 GR
GR value (THZ531; 0.03162 µM): 1.03 GR
GR value (THZ531; 0.1 µM): 0.979 GR
GR value (THZ531; 0.3162 µM): 0.965 GR
GR value (THZ531; 1 µM): 0.61 GR
GR value (Flavopiridol [5]; 0.0001 µM): 1.01 GR
GR value (Flavopiridol [5]; 0.0003162 µM): 0.998 GR
GR value (Flavopiridol [5]; 0.001 µM): 0.973 GR
GR value (Flavopiridol [5]; 0.003162 µM): 0.925 GR
GR value (Flavopiridol [5]; 0.01 µM): 0.941 GR
GR value (Flavopiridol [5]; 0.03162 µM): 0.885 GR
GR value (Flavopiridol [5]; 0.1 µM): 0.631 GR
GR value (Flavopiridol [5]; 0.3162 µM): 0.132 GR
GR value (Flavopiridol [5]; 1 µM): -0.0516 GR

Reference: the supplement of paper PMC9663587
